Laboratory results reported in patent publication US20070141129A1, “Wound care product comprising a substance which inhibits the growth of bacteria in wounds” (priority 2003, published 2007).
“Also recorded” adds a separate entry of the source.

Key:
P. aeruginosa = test: growth of P. aeruginosa in BHI broth with added xylitol; assay type: cell-based, Pseudomonas aeruginosa; settings: xylitol added to BHI, 1-10% (FIG. 5)
Description: (§1) The bacterial strains were stored at −70° C. Immediately prior to each experiment, these strains were taken out and placed on a blood plate and incubated overnight at 35° C. The same incubator was used in all the experiments. After that, a loop of the colonies which had grown was incubated in brain heart infusion (BHI) broth for 18 hours. 100 μl of this broth were inoculated into 3-5 ml of fresh BHI broth with or without the addition of xylitol. Different contents of xylitol were added. As is evident from FIGS. 1-5, the contents of xylitol were 1%, 2.5%, 5% and 10%.
(§2) The transmittance or translucency was measured from hour 0, and after that every hour, for 6 hours on a Biolog turbidimeter from the company Biolog Inc., Hayward, Calif., USA. The growth of bacteria reduces the translucency, i.e. the lower the transmittance the greater the growth of the bacteria.
(§3) At 0 hours and at 6 hours, 100 μl of the broth were cultured and the number of live bacteria was counted. The transmittance value and the quantity of bacteria (colony forming units/ml) in tubes with and without xylitol were then compared.

group B streptococci = test: growth of group B streptococci in BHI broth with added xylitol; assay type: cell-based; settings: xylitol added to BHI, 1-10% (FIG. 3)
Description: as §1, §2, §3

[1] = test system: S. aureus (including MRSA), group A, B, C and G streptococci, enterococci (including VRE) and Pseudomonas aeruginosa; test: growth of wound infection bacteria in nutrient-rich medium with added xylitol; assay type: cell-based; settings: xylitol (1-10%) in nutrient-rich medium
Description: as §1, §2, §3

group G streptococci = test: growth of group G streptococci in BHI broth with added xylitol; assay type: cell-based; settings: xylitol added to BHI, 1-10% (FIG. 4)
Description: as §1, §2, §3

[2] = test system: epithelial cells in the skin; settings: cited from earlier work
VRE = test: growth of VRE with xylitol; assay type: cell-based, vancocin-resistant enterococci
Description: as §1, §2, §3

bacteria = settings: bacteriological tests; cited from earlier work
alpha-streptococci = settings: oral flora; uptake via fructose phosphotransferase system; cited from earlier work
[3] = toxicity assessed as so low; cited from earlier work
S. aureus [4] = test: growth of S. aureus in BHI broth with added xylitol (transmittance); assay type: cell-based, Staphylococcus aureus
Description: as §1, §2, §3

[5] = test system: beta-haemolytic streptococci, including group B streptococci; test: growth of beta-haemolytic streptococci with xylitol; assay type: cell-based
Description: as §1, §2, §3

[6] = test system: S. aureus (multiresistant), MRSA strain; test: growth of multiresistant S. aureus (MRSA strain) in BHI broth with added xylitol (transmittance); assay type: cell-based, Staphylococcus aureus
Description: as §1, §2, §3

[7] = children, clinical study; cited from earlier work
S. aureus [8] = settings: cited from earlier work
[9] = test system: intestinal bacteria which cause diarrhoea, bacteria which give rise to ear inflammations, yeast fungus; settings: cited from earlier work

## OC[C@@H](O)[C@H](O)[C@@H](O)CO [xylitol]
P. aeruginosa
  inhibition of growth of the bacteria: effective in combating the growth; also recorded: very effective in inhibiting the growth
Group B streptococci
  inhibition of growth of the bacteria: effectively inhibited
[1]
  reduction of growth, factor: ≤ 1000
Group G streptococci
  inhibition of growth of the bacteria: very effective in inhibiting the growth
[2]
  absorption by epithelial cells in the skin: only absorbed to a very slight extent
VRE
  inhibition of growth of the bacteria: effective in combating the growth
bacteria
  mutagenic properties (increase in natural mutation frequency): No mutagenic properties
alpha-streptococci
  growth of alpha-streptococci: inhibited
[3]
  limit value for an acceptable daily intake: no limit value
S. aureus [4]; BHI containing 10% added xylitol, 2 hours (FIG. 1)
  bacterial growth after 2 hours: hardly any bacterial growth at all
S. aureus [4]; BHI nutrient solution, 10% xylitol added, 6 hours, without xylitol 20 (FIG. 1)
  translucency (transmittance) after 6 hours: more than 60%
[5]
  effect against the bacteria: also effective
[6]; 10% added xylitol, 6 hours, without xylitol approx. 30% (FIG. 2)
  translucency after 6 hours: more than 70%
[6]; xylitol added to nutrient solution, 1-10%
  inhibition of growth of the bacteria: effective in combating the growth; also recorded: inhibited very effectively
[7]
  reduction of the number of ear inflammations: up to 40%
S. aureus [8]
  production of glycocalyx: decrease
[9]
  adherence of bacteria: decreases the adherence
